18 compounds from ChEMBL document CHEMBL1159192, “PD 165929 the first high affinity non-peptide neuromedin-B (NMB) receptor selective antagonist” (Bioorg Med Chem Lett, 1996) can be followed below.

For assay [1], the target named is Gastrin-releasing peptide receptor (Homo sapiens, UniProt P30550). Put plainly: Binding affinity against [125 I][4Tyr]-bombesin labeled cloned human GRP(gastrin releasing peptide) receptors stably expressed in CHO cells. The format is cell-based.
For assay [2], the target named is T1, Neuromedin-B receptor (Homo sapiens, UniProt P28336). Put plainly: Binding affinity against [125 I][4Tyr]-bombesin labeled cloned human NMB receptor stably expressed in CHO cells. The format is cell-based.
Target sequence in this assay (P28336 whole entry): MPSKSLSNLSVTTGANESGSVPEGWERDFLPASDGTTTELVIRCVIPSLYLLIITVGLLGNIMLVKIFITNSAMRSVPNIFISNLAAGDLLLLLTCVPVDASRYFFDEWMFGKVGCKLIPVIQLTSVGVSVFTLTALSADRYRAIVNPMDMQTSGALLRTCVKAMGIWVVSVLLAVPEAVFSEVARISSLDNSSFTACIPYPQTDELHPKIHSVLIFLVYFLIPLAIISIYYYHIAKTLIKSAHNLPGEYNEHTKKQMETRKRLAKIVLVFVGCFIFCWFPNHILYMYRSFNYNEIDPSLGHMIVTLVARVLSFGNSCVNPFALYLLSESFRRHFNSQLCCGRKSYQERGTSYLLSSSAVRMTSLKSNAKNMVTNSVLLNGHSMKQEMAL
In assay [3] the target is T1, Neuromedin-B receptor. Put plainly: Inhibition of the NMB evoked increases in chloride currents in xenopus oocytes expressing human NMB receptor. To be noted: Oocyte. The format is functional, cell-based.
Target sequence in this assay (P28336 whole entry, looked up): as the sequence (P28336 whole entry) above
Assay [4] deals with T1, Neuromedin-B receptor. Put plainly: Binding affinity against human NMB receptor was determined.
Target sequence in this assay (P28336 whole entry): as above
The target of assay [5] is T1, Neuromedin-B receptor. Description: Inhibition of the NMB induced acidification response at human NMB receptor expressed in CHO cell. The format is functional, cell-based.
Target sequence in this assay (P28336 whole entry, looked up): as the sequence (P28336 whole entry) above
The target of assay [6] is T2, Neuromedin-B receptor (Rattus norvegicus, UniProt P24053).
T2 sequence (P24053 whole entry): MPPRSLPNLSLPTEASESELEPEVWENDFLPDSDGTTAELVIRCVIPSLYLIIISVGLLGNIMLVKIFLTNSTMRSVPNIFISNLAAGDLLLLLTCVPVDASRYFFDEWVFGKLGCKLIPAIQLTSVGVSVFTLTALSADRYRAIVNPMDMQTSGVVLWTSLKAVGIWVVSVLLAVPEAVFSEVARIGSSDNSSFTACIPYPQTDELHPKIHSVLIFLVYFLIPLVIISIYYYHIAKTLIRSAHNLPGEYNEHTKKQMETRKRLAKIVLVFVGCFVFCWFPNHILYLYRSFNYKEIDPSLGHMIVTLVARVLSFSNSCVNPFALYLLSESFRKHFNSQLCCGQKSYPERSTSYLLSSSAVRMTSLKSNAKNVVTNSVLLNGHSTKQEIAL
Put plainly: Binding affinity against NMB receptor in rat olfactory bulb was determined using [125I]-[Tyr4] bombesin.

Chain of Gastrin-releasing peptide receptor (P30550 whole entry): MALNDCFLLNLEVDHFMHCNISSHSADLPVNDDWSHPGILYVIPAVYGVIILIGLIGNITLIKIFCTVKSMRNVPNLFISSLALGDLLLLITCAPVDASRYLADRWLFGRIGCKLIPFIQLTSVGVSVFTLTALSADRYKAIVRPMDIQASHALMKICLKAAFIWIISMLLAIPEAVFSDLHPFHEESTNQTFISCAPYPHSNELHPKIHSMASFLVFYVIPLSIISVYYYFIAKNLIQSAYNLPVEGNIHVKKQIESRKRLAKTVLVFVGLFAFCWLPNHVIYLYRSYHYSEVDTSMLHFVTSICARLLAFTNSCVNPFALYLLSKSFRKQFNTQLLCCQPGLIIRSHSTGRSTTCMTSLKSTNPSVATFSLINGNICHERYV

By Ki is commonly meant a measure of affinity in units of concentration, obtained from inhibition or displacement. High values mean weaker binding, low ones tighter binding. On to `CC(C)c1cccc(C(C)C)c1NC(=O)NC(C)(Cc1c[nH]c2ccccc12)C(=O)NC1CCc2ccccc2C1` (stereo not drawn), for which the figures for the Ki (in assay [1]; at Neuromedin-B receptor [2]) were above 10000 nM and 310 nM, respectively.
In the same order, the values of `CC(C)c1cccc(C(C)C)c1N(C)C(=O)NC(Cc1c[nH]c2ccccc12)C(=O)NCC1CCCCC1` (stereo not drawn) are above 10000 nM and 260 nM.
For `CC(C)c1cccc(C(C)C)c1NC(=O)NC(Cc1c[nH]c2ccccc12)C(=O)N(C)CC1CCCCC1` (stereo not drawn), in assay [1], the Ki is above 10000 nM.
The term IC50 denotes the concentration needed to halve the response being measured. A high value points to weaker potency. Regarding `CC(C)c1cccc(C(C)C)c1NC(=O)N[C@@](C)(Cc1c[nH]c2ccccc12)C(=O)NCC1(c2ccccn2)CCCCC1`, the figures for the Kb on Neuromedin-B receptor [3] and on Neuromedin-B receptor [5] were 7.5 nM and 7.6 nM, respectively. Besides, the Ki is 6.3 nM at Neuromedin-B receptor [4], above 10000 nM in assay [1] and 6.3 nM on Neuromedin-B receptor [2]. The IC50 on Neuromedin-B receptor [6] is 150 nM.
Regarding `CC(C)c1cccc(C(C)C)c1NC(=O)NC(C)(Cc1c[nH]c2ccccc12)C(=O)NCCc1ccccc1` (stereo not drawn), the inhibitory constant (Ki) in assay [1] is above 10000 nM; at Neuromedin-B receptor [2], 450 nM.
In the same order, the values of `CC(C)c1cccc(C(C)C)c1NC(=O)NC(C)(Cc1c[nH]c2ccccc12)C(=O)NCC1CCCCC1` (stereo not drawn) are above 10000 nM and 125 nM.
In the same order, the values of `CC(C)c1cccc(C(C)C)c1NC(=O)NC(C)(Cc1c[nH]c2ccccc12)C(=O)NCC1(c2ccccc2)CCCCC1` (stereo not drawn) are above 10000 nM and 7.8 nM.
In the same order, the values of `CC(C)c1cccc(C(C)C)c1NC(=O)NC(C)(Cc1c[nH]c2ccccc12)C(=O)N[C@H]1COC(C)(C)OC1c1ccccc1` (stereo partly drawn) are above 10000 nM and 95 nM.
As for `CC(C)c1cccc(C(C)C)c1NC(=O)NC(C)(Cc1c[nH]c2ccccc12)C(=O)NC1CCCc2ccccc21` (stereo not drawn), the Ki was above 10000 nM in assay [1] and 72 nM on Neuromedin-B receptor [2].
In the same order, the values of `CC(C)c1cccc(C(C)C)c1NC(=O)NC(C)(Cc1c[nH]c2ccccc12)C(=O)NC1COC(C)(C)OC1` (stereo not drawn) are above 10000 nM and 630 nM.
In the same order, the values of `CC(C)c1cccc(C(C)C)c1NC(=O)N[C@](C)(Cc1c[nH]c2ccccc12)C(=O)NC1CCCc2ccccc21` (stereo partly drawn) are above 10000 nM and 14 nM.
In the same order, the values of `CC(C)c1cccc(C(C)C)c1NC(=O)NC(C)(Cc1c[nH]c2ccccc12)C(=O)NC1CCCCC1` (stereo not drawn) are above 10000 nM and 310 nM.
The compound `CC(C)c1cccc(C(C)C)c1NC(=O)N(C)C(Cc1c[nH]c2ccccc12)C(=O)NCC1CCCCC1` (stereo not drawn) yielded a Ki in assay [1] of 1500 nM.
As to `CC(C)c1cccc(C(C)C)c1NC(=O)NC(Cc1c[nH]c2ccccc12)C(=O)NCC1CCCCC1` (stereo not drawn), the Ki in assay [1] is above 10000 nM; on Neuromedin-B receptor [2], 120 nM.
In the same order, the values of `CNC(=O)C(C)(Cc1c[nH]c2ccccc12)NC(=O)Nc1c(C(C)C)cccc1C(C)C` (stereo not drawn) are above 10000 nM and 3700 nM.
In the same order, the values of `CC(C)c1cccc(C(C)C)c1NC(=O)NC(C)(Cc1c[nH]c2ccccc12)C(=O)N[C@@H]1COC(C)(C)OC1c1ccccc1` (stereo partly drawn) are above 10000 nM and 420 nM.
In the same order, the values of `CC(C)c1cccc(C(C)C)c1NC(=O)NC(Cc1c[nH]c2ccccc12)C(=O)NC(C)C1CCCCC1` (stereo not drawn) are above 10000 nM and 440 nM.
In the case of `CC(C)c1cccc(C(C)C)c1NC(=O)N[C@@](C)(Cc1c[nH]c2ccccc12)C(=O)NC1CCCCC1c1ccccc1` (stereo partly drawn), the Ki was above 10000 nM in assay [1] and 76 nM on Neuromedin-B receptor [2].
